Test system: thromboxane B2 (TXB2) formation
Assay: Percent inhibition against thromboxane B2 (TXB2) formation in collagen-stimulated PRP from mice after oral administration (RIA)
Assay type: in vivo, ddY male mouse
Settings: Mus musculus, blood collected 1 hour later, 12.5 μg/ml collagen, TXB2 5 minutes later; for inhibition at 30 mg/kg: 30 mg/kg oral; for inhibition at 100 mg/kg: 100 mg/kg oral
Protocol: Using a ddY male mouse having a body weight of 35-40 g, one of the representative compounds of this invention was administered orally. One hour later, citrated blood was collected. PRP (platelet-rich plasma) was separated. Aggregation of platelets by the addition of 12.5 μg/ml of collagen was observed by an aggregometer. The amount of thromboxane B2 (a stable metabolite of thromboxane A2) formed 5 minutes later in the liquid reaction mixture was measured by the RIA method. Results are shown in Table 1, in terms of percent inhibition against the formation of thromboxane B2 (TXB2).

Row | Compound | inhibition at 30 mg/kg | inhibition at 100 mg/kg
1 | CCOC(=O)C1=C(C)NC(C)=C(C(=O)OCCOC(=O)c2ccc(OCCn3ccnc3)cc2)C1c1cccc([N+](=O)[O-])c1 (stereo not shown) [Ex. 2, 3-Ethyl 5-[2-[4-[2-(1-imidazolyl)-ethoxy]-benzoyloxy]-ethyl]2,6-dimethyl-4-(3-nitrophenyl)-1,4-dihydropyridine-3,5-dicarboxylate] | 42% | 72%
2 | CCOC(=O)C1=C(C)NC(C)=C(C(=O)OCCCOC(=O)c2ccc(OCCn3ccnc3)cc2)C1c1cccc([N+](=O)[O-])c1 (stereo not shown) [Ex. 6, 3-Ethyl 5-[3-[4-[2-(1-imidazolyl)ethoxyl]benzoyloxy]propyl]2,6-dimethyl-4-(3-nitrophenyl)-1,4-dihydropyridine-3,5-dicarboxylate] | 74% | 95%
3 | COC(=O)C1=C(C)NC(C)=C(C(=O)OCCOC(=O)C=Cc2ccc(Cn3ccnc3)cc2)C1c1cccc([N+](=O)[O-])c1 (stereo not shown) [Ex. 8, 3-Methyl 5-[2-[3-[4-(1-imidazolylmethyl)-phenyl]acryloyloxy]ethyl]2,6-dimethyl-4-(3-nitrophenyl)-1,4-dihydropyridine-3,5-dicarboxylate] | 60% | 72%
4 | COC(=O)C1=C(C)NC(C)=C(C(=O)OCCOC(=O)C=Cc2ccc(Cn3ccnc3)cc2)C1c1ccccc1F (stereo not shown) [Ex. 14, 3-Methyl 5-[2-[3-[4-(1-imidazolylmethyl)phenyl]acryloyloxy]ethyl]2,6-dimethyl-4-(2-fluorophenyl)-1,4-dihydropyridine-3,5-dicarboxylate] | 52% | 83%
5 | COC(=O)C1=C(C)NC(C)=C(C(=O)OCCOC(=O)c2ccc(OCCn3ccnc3)cc2)C1c1cccc(Cl)c1Cl (stereo not shown) [Ex. 16, 3-Methyl 5-[2-[4-[2-(1-imidazolyl)ethoxy]-benzoyloxy]ethyl]2,6-dimethyl-4-(2,3-dichlorophenyl)-1,4-dihydropyridine-3,5-dicarboxylate] | 75% | 94%
